Test results: ChEMBL document CHEMBL5465560, “Selectivity Literature for EUbOPEN Chemogenomic Library” (2024)

Assays:
[1] = test system: Epidermal growth factor receptor (Homo sapiens), P00533 [UNDEFINED MUTATION]; assay: Selectivity interaction (KinomeScan (DiscoverX)) EUB0000229b EGFR; settings: at 1 µM
[2] = molecular target: T1, Serine/threonine-protein kinase TBK1 (Homo sapiens) (UniProt Q9UHD2); assay: Selectivity interaction (KinomeScan (DiscoverX)) EUB0000595a TBK1; settings: at 10 µM
T1 sequence (whole entry): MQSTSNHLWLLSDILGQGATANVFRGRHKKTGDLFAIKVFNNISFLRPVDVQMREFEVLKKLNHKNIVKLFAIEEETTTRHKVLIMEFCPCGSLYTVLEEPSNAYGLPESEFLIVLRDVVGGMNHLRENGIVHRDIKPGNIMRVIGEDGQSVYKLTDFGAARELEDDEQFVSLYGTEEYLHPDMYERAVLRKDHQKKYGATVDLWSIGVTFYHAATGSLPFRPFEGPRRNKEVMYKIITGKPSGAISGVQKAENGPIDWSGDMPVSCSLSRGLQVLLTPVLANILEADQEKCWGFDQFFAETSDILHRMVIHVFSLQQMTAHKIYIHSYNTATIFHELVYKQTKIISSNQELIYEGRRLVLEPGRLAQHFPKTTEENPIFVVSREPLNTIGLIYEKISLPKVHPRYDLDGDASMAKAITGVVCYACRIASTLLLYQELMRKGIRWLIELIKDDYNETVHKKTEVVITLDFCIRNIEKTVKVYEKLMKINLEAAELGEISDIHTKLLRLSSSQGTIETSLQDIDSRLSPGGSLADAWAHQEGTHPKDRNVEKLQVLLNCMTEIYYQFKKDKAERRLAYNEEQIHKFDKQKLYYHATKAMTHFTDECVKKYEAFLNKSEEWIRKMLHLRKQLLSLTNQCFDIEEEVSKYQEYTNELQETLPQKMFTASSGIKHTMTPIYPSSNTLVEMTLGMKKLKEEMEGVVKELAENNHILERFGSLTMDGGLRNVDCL

[3] = molecular target: RAC-beta serine/threonine-protein kinase (Homo sapiens) (UniProt P31751); assay: Selectivity interaction (KinomeScan (DiscoverX)) EUB0000045b AKT2
Chain of RAC-beta serine/threonine-protein kinase (Homo sapiens) (P31751 whole entry): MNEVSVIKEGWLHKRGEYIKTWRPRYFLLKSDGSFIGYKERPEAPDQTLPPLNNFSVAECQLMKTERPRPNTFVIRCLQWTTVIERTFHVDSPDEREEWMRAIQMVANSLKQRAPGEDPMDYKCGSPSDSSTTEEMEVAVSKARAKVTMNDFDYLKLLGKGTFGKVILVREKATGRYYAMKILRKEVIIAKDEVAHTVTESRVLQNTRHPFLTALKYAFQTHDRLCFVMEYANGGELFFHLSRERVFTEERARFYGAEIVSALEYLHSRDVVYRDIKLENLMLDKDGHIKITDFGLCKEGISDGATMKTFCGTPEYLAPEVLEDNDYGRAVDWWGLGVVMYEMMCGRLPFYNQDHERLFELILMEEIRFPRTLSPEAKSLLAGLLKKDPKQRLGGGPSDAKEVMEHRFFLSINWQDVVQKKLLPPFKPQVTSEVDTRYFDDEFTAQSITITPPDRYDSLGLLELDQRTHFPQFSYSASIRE

[4] = molecular target: Transient receptor potential cation channel subfamily M member 6 (Homo sapiens) (UniProt Q9BX84); assay: Selectivity interaction (KinomeScan (DiscoverX)) EUB0000666a TRPM6; settings: at 10 µM
Chain of Transient receptor potential cation channel subfamily M member 6 (Homo sapiens) (Q9BX84 whole entry): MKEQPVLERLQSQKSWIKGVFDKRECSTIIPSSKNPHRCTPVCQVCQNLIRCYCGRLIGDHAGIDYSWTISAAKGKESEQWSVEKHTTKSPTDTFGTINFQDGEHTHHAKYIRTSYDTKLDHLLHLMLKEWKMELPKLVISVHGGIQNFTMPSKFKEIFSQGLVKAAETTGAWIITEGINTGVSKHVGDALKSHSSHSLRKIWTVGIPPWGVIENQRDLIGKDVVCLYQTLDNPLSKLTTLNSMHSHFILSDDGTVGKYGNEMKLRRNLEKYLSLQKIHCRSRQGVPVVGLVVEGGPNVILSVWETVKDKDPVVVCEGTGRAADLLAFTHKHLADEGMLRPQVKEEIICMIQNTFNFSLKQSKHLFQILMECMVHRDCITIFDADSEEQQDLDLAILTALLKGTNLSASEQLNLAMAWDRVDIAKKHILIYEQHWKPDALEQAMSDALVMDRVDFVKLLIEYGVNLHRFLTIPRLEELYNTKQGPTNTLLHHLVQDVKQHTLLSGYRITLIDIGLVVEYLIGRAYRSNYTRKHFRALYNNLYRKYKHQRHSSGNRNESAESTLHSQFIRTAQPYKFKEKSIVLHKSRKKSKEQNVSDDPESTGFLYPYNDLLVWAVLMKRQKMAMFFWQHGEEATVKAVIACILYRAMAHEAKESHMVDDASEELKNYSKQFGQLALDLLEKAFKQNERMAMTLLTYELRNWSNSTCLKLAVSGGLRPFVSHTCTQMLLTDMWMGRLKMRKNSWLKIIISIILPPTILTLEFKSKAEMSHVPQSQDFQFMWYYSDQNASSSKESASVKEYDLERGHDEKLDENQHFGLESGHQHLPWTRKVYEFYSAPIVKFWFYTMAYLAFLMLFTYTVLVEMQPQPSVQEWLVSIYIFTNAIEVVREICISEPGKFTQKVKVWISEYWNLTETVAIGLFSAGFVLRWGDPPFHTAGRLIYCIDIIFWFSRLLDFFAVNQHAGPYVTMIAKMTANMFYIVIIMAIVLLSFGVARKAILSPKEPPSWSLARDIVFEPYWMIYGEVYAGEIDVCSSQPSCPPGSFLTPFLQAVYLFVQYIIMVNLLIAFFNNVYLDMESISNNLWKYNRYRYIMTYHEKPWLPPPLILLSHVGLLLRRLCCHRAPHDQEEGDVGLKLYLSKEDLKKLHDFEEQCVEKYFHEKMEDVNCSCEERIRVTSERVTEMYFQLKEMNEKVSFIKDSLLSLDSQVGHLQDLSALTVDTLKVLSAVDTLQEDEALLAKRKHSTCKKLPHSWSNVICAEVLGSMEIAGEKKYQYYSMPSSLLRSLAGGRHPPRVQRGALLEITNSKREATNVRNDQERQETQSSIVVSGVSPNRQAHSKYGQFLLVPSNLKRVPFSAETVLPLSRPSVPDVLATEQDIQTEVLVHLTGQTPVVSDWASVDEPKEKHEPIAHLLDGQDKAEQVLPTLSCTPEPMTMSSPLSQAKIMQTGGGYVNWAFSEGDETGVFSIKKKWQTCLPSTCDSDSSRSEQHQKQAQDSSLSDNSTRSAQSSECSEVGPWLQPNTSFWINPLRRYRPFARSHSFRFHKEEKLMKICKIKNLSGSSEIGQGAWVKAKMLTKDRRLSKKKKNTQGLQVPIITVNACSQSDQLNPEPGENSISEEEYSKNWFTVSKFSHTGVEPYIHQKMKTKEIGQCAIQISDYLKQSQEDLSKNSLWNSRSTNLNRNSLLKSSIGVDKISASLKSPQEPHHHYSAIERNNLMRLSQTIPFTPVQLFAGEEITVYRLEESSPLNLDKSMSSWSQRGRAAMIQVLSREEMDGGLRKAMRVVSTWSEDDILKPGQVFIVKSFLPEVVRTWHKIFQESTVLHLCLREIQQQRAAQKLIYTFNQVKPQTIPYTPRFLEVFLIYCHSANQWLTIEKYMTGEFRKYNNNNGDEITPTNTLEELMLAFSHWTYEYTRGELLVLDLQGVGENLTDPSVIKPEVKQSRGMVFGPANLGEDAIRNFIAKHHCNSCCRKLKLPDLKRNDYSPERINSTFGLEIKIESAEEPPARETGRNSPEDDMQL

[5] = molecular target: T2, Inhibitor of nuclear factor kappa-B kinase subunit epsilon (Homo sapiens) (UniProt Q14164); assay: Selectivity interaction (ActivX KiNativ screen (ex vivo kinase selectivity in human PBMCs)) EUB0001619a IKBKE; format: cell-based; settings: PBMC, at 1 µM
T2 sequence (whole entry): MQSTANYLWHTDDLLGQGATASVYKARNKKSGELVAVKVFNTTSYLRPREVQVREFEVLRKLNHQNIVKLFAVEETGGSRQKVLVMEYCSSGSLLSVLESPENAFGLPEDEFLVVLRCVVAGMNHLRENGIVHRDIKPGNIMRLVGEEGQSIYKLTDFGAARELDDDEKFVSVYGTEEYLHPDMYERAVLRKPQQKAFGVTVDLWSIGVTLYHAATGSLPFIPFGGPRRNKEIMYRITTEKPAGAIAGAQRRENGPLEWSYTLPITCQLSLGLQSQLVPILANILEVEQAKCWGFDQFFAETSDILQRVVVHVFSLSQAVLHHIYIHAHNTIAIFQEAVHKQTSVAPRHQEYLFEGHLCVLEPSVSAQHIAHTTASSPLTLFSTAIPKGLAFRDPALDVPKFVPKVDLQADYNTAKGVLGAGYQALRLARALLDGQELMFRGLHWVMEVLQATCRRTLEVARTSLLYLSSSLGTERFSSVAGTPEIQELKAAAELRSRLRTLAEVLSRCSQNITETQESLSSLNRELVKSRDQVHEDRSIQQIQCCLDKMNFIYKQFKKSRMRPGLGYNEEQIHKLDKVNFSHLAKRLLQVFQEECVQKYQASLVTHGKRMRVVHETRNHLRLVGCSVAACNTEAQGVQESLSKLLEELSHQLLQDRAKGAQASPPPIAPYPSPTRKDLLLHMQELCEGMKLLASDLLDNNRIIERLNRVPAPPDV

[6] = test system: Tyrosine-protein kinase ABL1 (Homo sapiens), P00519 [H396P]; assay: Selectivity interaction (KinomeScan (DiscoverX)) EUB0000618a ABL1; settings: at 10 µM
[7] = molecular target: Phosphatidylinositol 3-kinase catalytic subunit type 3 (Homo sapiens, UniProt Q8NEB9); assay: Selectivity interaction (ActivX KiNativ screen (kinase selectivity in THP-1 cell lysates)) EUB0000639a PIK3C3; format: subcellular; settings: lysate, at 0.04 µM
Chain of Phosphatidylinositol 3-kinase catalytic subunit type 3 (Q8NEB9 whole entry): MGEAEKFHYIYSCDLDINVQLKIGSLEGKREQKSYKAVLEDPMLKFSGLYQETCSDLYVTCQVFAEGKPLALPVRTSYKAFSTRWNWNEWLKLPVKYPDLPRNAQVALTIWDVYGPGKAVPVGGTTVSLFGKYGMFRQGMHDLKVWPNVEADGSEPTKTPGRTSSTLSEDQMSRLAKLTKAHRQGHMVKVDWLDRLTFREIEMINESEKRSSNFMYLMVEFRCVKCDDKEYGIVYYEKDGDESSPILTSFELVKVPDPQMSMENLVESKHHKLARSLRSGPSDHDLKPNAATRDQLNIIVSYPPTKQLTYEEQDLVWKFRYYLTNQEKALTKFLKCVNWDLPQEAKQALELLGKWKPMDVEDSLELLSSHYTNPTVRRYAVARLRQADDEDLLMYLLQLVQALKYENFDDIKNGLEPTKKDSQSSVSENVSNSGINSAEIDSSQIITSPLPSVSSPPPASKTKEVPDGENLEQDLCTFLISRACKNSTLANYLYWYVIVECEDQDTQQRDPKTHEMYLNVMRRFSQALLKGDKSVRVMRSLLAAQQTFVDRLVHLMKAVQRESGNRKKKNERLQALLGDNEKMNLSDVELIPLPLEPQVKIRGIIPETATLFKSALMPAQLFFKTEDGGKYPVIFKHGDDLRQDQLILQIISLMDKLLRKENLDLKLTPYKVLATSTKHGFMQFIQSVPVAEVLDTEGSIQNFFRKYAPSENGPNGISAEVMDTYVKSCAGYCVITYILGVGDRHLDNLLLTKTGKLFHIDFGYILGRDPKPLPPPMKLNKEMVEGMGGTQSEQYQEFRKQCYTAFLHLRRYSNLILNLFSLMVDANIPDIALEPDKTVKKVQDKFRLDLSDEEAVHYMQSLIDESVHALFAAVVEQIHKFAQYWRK

[8] = molecular target: T3, Serine/threonine-protein kinase Sgk3 (Homo sapiens) (UniProt Q96BR1); assay: Selectivity interaction (ActivX KiNativ screen (kinase selectivity in THP-1 cell lysates)) EUB0000639a SGK3; format: subcellular; settings: lysate, at 1 µM
T3 sequence (whole entry): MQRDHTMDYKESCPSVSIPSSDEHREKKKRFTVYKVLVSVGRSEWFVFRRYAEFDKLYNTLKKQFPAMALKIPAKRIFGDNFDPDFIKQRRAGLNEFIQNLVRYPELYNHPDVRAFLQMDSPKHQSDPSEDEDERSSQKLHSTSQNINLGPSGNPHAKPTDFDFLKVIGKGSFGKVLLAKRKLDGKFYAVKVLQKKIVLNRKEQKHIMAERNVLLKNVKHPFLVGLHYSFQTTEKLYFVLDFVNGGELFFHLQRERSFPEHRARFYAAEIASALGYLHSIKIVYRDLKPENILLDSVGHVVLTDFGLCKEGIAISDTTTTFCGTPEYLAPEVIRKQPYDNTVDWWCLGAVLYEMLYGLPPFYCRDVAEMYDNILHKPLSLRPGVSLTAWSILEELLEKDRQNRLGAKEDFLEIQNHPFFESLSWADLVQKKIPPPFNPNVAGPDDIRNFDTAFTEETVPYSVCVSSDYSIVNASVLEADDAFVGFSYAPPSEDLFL

Chain of Epidermal growth factor receptor (Homo sapiens), P00533 [UNDEFINED MUTATION] (P00533 whole entry, looked up, change not shown): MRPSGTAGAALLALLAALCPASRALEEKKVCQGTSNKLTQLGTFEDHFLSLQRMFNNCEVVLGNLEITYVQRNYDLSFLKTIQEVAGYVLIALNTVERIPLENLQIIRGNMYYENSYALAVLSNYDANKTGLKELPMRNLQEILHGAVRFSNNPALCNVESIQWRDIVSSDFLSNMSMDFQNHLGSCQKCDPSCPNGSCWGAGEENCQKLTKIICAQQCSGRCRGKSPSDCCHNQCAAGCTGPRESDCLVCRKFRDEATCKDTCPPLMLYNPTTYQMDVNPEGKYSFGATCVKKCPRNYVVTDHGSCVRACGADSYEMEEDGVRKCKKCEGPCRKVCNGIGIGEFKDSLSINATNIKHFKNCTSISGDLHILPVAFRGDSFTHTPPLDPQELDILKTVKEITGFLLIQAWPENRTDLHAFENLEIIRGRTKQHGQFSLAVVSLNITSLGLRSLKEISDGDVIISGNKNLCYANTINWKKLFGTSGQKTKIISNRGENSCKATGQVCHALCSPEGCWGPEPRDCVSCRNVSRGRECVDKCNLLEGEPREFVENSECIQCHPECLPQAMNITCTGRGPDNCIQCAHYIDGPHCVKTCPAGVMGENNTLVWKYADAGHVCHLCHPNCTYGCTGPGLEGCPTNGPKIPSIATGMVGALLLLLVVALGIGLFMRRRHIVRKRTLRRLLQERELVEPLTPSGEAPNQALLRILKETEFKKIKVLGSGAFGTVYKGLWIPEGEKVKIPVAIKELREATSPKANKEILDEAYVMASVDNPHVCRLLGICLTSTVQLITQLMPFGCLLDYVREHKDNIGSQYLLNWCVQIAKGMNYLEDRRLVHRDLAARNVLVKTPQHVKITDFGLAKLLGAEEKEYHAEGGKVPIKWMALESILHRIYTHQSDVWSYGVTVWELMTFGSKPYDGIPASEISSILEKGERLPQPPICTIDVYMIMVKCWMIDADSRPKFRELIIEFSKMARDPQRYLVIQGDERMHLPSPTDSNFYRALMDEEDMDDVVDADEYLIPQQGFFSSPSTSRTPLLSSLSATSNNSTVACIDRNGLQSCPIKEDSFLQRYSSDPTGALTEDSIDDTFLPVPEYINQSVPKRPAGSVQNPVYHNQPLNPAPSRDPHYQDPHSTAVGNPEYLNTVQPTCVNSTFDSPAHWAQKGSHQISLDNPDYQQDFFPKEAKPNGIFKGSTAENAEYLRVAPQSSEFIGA

## COc1cc(N(C)c2ccnc3ccc(C(F)(F)F)cc23)cc(OC)c1OC
[1]
  % binding: 98%

## COCC(=O)NC/C=C/c1ccc2ncnc(Nc3ccc(Oc4ccc(C)nc4)c(C)c3)c2c1 [CP-724714]
[2]
  % of control: 90%

## C=CC(=O)Nc1cc(-n2c(=O)ccc3cnc4ccc(-c5ccc(NS(C)(=O)=O)cc5)cc4c32)ccc1C
[3]; at 1 µM
  % of control: 100%
[3]; at 10 µM
  % of control: 100%

## O=C(NOC[C@H](O)CO)c1ccc(F)c(F)c1Nc1ccc(I)cc1F
[4]
  % of control: 100%

## N#Cc1cccc(-c2c[nH]c3ncnc(N4CCOCC4)c23)c1
[5]
  % of inhibition: 19%

## O[C@H]1CC[C@H](Nc2ncc3nc(Nc4c(F)cc(F)cc4F)n([C@H]4CCOC4)c3n2)CC1
[6]
  % of control: 31%

## CC[C@@H]1[C@H](F)C(=O)N[C@@H]1COc1nccc2cc(C(N)=O)c(OC)cc12 [ZIMLOVISERTIB]
[7]
  % of inhibition: -7%
[8]
  % of inhibition: -1%
